Values belong to the compound of their own block, whether it stands above or below them. Where a SMILES comes first, the peptide text is derived from it. Bridges are numbered along the chain shown (N, C = ends). [ ]: non-standard residue; d: D form. Dap = NC[C@H](N)C(=O)O
Assays:
[1] = test system: Staphylococcus aureus; experiment: Agonist activity at AgrC-3 in Staphylococcus aureus incubated for 60 to 90 mins by beta-lactamase reporter gene assay
[2] = Inhibition of AgrC-1 in Staphylococcus aureus RN9222 incubated for 60 to 90 mins in presence of AIP agonist by beta-lactamase reporter gene assay
[3] = Inhibition of AgrC-2 in Staphylococcus aureus RN9372 incubated for 60 to 90 mins in presence of AIP agonist by beta-lactamase reporter gene assay
[4] = Agonist activity at AgrC-4 in Staphylococcus aureus RN9371 incubated for 60 to 90 mins in presence of AIP agonist by beta-lactamase reporter gene assay
[5] = Inhibition of AgrC-1 in Staphylococcus aureus AH1677 incubated for 24 hrs by fluorescence assay
[6] = Drug degradation in ammonium carbonate solution 0.3 mg after 8 hrs after RP-HPLC analysis; type: physicochemical; settings: read-out: Drug degradation
[7] = Activation of AgrC-1 Staphylococcus epidermidis AH3408 incubated for 24 hrs by fluorescence assay
[8] = test system: Staphylococcus aureus; experiment: Inhibition of AIP biosynthesis in methicillin-resistant Staphylococcus aureus USA300 incubated for 16 hrs by LC-MS analysis; type: functional, organism-based; settings: USA300, 16 h
[9] = test system: Staphylococcus aureus; experiment: Antibacterial activity against methicillin-resistant Staphylococcus aureus infected in BALB/c mouse assessed as reduction in skin ulcer formation at 25 ug, id after 4 days relative to control; type: functional; parameters: scale not given: the % may be the effect or the level left
[10] = test system: Staphylococcus aureus; experiment: Antibacterial activity against methicillin-resistant Staphylococcus aureus infected in BALB/c mouse assessed as reduction in skin ulcer formation at 5 ug, id after 4 days relative to control; type: functional; parameters: scale not given: the % may be the effect or the level left
[11] = target: T1, Receptor-histidine kinase AgrC (Staphylococcus aureus, UniProt O07911); experiment: Inhibition of AgrC in mid-exponential phase Staphylococcus aureus RN6390B assessed as beta-lactamase activity incubated for 80 mins by spectrophotometric method
T1 sequence (O07911 whole entry): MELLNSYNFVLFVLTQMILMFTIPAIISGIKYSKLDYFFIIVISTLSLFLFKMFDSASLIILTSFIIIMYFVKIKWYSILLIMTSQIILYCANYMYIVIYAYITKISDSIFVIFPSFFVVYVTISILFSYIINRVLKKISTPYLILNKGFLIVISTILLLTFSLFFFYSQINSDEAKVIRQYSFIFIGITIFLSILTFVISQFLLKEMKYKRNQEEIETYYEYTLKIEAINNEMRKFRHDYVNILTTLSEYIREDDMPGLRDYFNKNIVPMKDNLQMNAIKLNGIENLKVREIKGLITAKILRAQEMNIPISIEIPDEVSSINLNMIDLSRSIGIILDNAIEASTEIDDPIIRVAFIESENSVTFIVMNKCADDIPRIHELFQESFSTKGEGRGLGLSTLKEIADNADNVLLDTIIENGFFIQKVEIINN

[12] = target: T2, Receptor-histidine kinase AgrC (Staphylococcus aureus) (UniProt O07911); experiment: Activation of AgrC in early exponential phase Staphylococcus aureus SA502A assessed as beta-lactamase activity incubated for 55 mins by spectrophotometric method
T2 sequence (whole entry): T1 sequence (O07911 whole entry)

[13] = target: T1, Receptor-histidine kinase AgrC; experiment: Inhibition of AgrC in mid-exponential phase Staphylococcus aureus RN8463 assessed as beta-lactamase activity incubated for 80 mins by spectrophotometric method
[14] = test system: Staphylococcus aureus; experiment: Agonist activity at AgrC-2 in Staphylococcus aureus RN9372 incubated for 60 to 90 mins by beta-lactamase reporter gene assay
[15] = Agonist activity at AgrC-3 in Staphylococcus aureus incubated for 60 to 90 mins in presence of AIP agonist by beta-lactamase reporter gene assay
[16] = Inhibition of AgrC-1 Staphylococcus aureus RN10829 incubated for 45 mins by beta-lactamase reporter gene assay
[17] = target: T2, Receptor-histidine kinase AgrC (Staphylococcus aureus); experiment: Activation of AgrC in early exponential phase Staphylococcus aureus RN6390B assessed as beta-lactamase activity incubated for 55 mins by spectrophotometric method
[18] = target: T1, Receptor-histidine kinase AgrC; experiment: Inhibition of AgrC in mid-exponential phase Staphylococcus aureus SA502A assessed as beta-lactamase activity incubated for 80 mins by spectrophotometric method
[19] = test system: Staphylococcus aureus; experiment: Agonist activity at AgrC-4 in Staphylococcus aureus RN9371 incubated for 60 to 90 mins by beta-lactamase reporter gene assay
[20] = test system: Staphylococcus aureus; experiment: Agonist activity at AgrC-1 in Staphylococcus aureus RN9222 incubated for 60 to 90 mins by beta-lactamase reporter gene assay
[21] = Inhibition of AgrC-2 in Staphylococcus aureus AH430 incubated for 24 hrs by fluorescence assay
[22] = Inhibition of AgrC-3 in Staphylococcus aureus AH1747 incubated for 24 hrs by fluorescence assay
[23] = Inhibition of AgrC-4 in Staphylococcus aureus AH1872 incubated for 24 hrs by fluorescence assay
[24] = Drug degradation in ammonium carbonate solution 0.3 mg after 24 hrs after RP-HPLC analysis; type: physicochemical; settings: read-out: Drug degradation
[25] = Drug degradation in ammonium carbonate solution 0.3 mg after 72 hrs after RP-HPLC analysis; type: physicochemical; settings: read-out: Drug degradation
[26] = test system: Staphylococcus aureus; experiment: Antibacterial activity against methicillin-resistant Staphylococcus aureus USA300 infected in CD-1 mouse MRSA sepsis model assessed as survival rate at 30 mg/kg, ip after 144 hrs (reference value: 70%); type: functional

ED50 [1]: 26 nM
IC50 [2]: 70 nM
IC50 [3]: 6 nM
IC50 [4]: 150 nM
IC50 [5]: 5.05 nM
degraded at 8 h [6]: 100%
Structure (SMILES): CC[C@H](C)[C@H](N)C(=O)N[C@@H](CC(N)=O)C(=O)N[C@H]1CSC(=O)[C@H](CC(C)C)NC(=O)[C@H](CC(C)C)NC(=O)[C@H](Cc2ccccc2)NC(=O)[C@H](CC(=O)O)NC1=O (H-INCDFLL; thioester 3-C)

EC50 [7]: 10.3 nM
Structure (SMILES): CC(C)[C@H](NC(=O)[C@H](CO)NC(=O)[C@H](C)N)C(=O)N[C@H]1CSC(=O)[C@H](Cc2ccccc2)NC(=O)[C@H](Cc2ccc(O)cc2)NC(=O)[C@H](C)NC(=O)[C@H](C)NC1=O (H-ASVCAAYF; thioester 4-C)

Structure (SMILES): CCCCC/C=C/C1=C(CO)[C@@H](O)[C@H]2O[C@@]2(C/C=C(\C)C(=O)O)C1=O
IC50 [8]: 2500 nM
Activity [9]: 100%
Activity [10]: 50%

Structure (SMILES): CC(C)C[C@@H]1NC(=O)[C@H](CO)NC(=O)[C@H](CO)NC(=O)[C@@H](NC(=O)[C@H](C)NC(=O)[C@H](CC(N)=O)NC(=O)[C@@H](NC(=O)CN)C(C)C)CSC(=O)[C@H](Cc2ccccc2)NC1=O (H-GVNACSSLF; thioester 5-C)
IC50 [11]: 2.9 nM
ED50 [12]: 3.6 nM
IC50 [13]: 3.2 nM
ED50 [14]: 30 nM
IC50 [2]: 40 nM
IC50 [15]: 1 nM
IC50 [4]: 86 nM
IC50 [16]: 12 nM

Structure (SMILES): CC[C@H](C)[C@@H]1NC(=O)[C@H](Cc2ccccc2)NC(=O)[C@H](CC(=O)O)NC(=O)[C@@H](NC(=O)[C@@H](NC(=O)[C@H](CO)NC(=O)[C@@H](N)Cc2ccc(O)cc2)[C@@H](C)O)CSC(=O)[C@H](CCSC)NC1=O (H-YSTCDFIM; thioester 4-C)
ED50 [17]: 10.2 nM
IC50 [18]: 3.4 nM
IC50 [13]: 3.1 nM
ED50 [19]: 26000 nM
ED50 [20]: 28 nM
IC50 [3]: 25 nM
IC50 [15]: 3 nM

IC50 [5]: 1.2 nM
IC50 [21]: 2.19 nM
IC50 [22]: 0.0551 nM
IC50 [23]: 0.192 nM
degraded at 24 h [24]: 10%
degraded at 72 h [25]: 40%
Structure (SMILES): CC[C@H](C)[C@H](N)C(=O)N[C@@H](CC(N)=O)C(=O)N[C@H]1CNC(=O)[C@H](CC(C)C)NC(=O)[C@H](CC(C)C)NC(=O)[C@H](Cc2ccccc2)NC(=O)[C@H](C)NC1=O (H-IN[Dap]AFLL; lactam 3-C)

Structure (SMILES): CCCCCCc1cc(C(=O)COc2ccc(C(C)C)cc2)c(O)cc1O
survival at 30 mg/kg [26]: 100%

Source: ChEMBL document CHEMBL4402540, “Structure-Activity Relationship Studies of Small Molecule Modulators of the Staphylococcal Accessory Gene Regulator” (J Med Chem, 2020)
